Columns and labels:
[1] = biological target: T1, Phosphatidylinositol 5-phosphate 4-kinase type-2 gamma (Homo sapiens) (UniProt Q8TBX8); assay: Inhibition of PIP5K2C (unknown origin) at 1 uM by Ambit Kinomescan binding assay relative to control; values are per cent of control
T1 sequence (whole entry): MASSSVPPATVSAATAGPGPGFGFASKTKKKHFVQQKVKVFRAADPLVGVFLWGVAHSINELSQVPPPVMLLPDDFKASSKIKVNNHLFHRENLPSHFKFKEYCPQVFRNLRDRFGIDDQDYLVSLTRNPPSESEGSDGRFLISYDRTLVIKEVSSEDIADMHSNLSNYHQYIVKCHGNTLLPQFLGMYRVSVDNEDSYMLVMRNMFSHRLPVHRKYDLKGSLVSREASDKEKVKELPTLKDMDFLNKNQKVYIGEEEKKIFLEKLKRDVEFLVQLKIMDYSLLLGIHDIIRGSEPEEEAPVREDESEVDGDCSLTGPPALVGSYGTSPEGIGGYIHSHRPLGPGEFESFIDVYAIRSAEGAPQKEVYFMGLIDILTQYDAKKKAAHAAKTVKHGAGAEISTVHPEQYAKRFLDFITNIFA

[2] = biological target: T2, Serine/threonine-protein kinase Nek1 (Homo sapiens) (UniProt Q96PY6); assay: Inhibition of NEK1 (unknown origin) at 1 uM by Ambit Kinomescan binding assay relative to control; values are per cent of control
T2 sequence (whole entry): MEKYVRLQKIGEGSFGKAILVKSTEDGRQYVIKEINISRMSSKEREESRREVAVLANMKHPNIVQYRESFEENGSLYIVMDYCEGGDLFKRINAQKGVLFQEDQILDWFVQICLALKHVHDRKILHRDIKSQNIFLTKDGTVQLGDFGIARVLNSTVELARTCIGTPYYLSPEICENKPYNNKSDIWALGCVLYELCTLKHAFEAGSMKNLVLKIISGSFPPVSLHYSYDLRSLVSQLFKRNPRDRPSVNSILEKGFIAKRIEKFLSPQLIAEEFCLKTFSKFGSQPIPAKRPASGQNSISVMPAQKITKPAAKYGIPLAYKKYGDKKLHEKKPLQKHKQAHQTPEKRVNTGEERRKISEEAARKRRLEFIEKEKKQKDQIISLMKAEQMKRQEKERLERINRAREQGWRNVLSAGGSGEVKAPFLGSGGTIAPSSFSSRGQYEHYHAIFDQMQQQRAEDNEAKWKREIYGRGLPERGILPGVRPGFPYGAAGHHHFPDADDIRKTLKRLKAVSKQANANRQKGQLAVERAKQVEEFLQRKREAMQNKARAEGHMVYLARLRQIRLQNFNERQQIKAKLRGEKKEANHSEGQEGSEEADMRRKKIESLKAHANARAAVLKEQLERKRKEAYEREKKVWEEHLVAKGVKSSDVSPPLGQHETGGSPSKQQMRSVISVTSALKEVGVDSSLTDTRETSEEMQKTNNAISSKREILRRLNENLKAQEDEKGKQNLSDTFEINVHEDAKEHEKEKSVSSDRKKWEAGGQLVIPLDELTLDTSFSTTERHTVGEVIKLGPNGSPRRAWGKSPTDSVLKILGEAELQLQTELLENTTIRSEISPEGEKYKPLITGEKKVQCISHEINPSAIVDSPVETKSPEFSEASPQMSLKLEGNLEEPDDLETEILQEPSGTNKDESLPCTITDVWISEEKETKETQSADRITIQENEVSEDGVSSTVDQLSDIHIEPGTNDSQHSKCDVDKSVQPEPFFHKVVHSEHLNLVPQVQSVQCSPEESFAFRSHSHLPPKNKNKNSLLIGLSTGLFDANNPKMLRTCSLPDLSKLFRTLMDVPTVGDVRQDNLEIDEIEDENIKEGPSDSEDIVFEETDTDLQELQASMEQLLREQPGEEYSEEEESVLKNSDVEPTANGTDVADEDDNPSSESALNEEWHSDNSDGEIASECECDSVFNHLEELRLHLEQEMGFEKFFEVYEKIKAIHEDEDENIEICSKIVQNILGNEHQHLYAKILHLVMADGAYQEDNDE

[3] = biological target: Serine/threonine-protein kinase 10 (Homo sapiens) (UniProt O94804); assay: Inhibition of LOK (unknown origin) at 1 uM by Ambit Kinomescan binding assay relative to control; values are per cent of control
[4] = biological target: Myosin light chain kinase 2, skeletal/cardiac muscle (Homo sapiens) (UniProt Q9H1R3); assay: Inhibition of MYLK2 (unknown origin) at 1 uM by Ambit Kinomescan binding assay relative to control; values are per cent of control
[5] = biological target: Tyrosine-protein kinase CSK (Homo sapiens, UniProt P41240); assay: Inhibition of CSK (unknown origin) at 1 uM by Ambit Kinomescan binding assay relative to control
Tyrosine-protein kinase CSK, sequence (P41240 2-450 limits assumed): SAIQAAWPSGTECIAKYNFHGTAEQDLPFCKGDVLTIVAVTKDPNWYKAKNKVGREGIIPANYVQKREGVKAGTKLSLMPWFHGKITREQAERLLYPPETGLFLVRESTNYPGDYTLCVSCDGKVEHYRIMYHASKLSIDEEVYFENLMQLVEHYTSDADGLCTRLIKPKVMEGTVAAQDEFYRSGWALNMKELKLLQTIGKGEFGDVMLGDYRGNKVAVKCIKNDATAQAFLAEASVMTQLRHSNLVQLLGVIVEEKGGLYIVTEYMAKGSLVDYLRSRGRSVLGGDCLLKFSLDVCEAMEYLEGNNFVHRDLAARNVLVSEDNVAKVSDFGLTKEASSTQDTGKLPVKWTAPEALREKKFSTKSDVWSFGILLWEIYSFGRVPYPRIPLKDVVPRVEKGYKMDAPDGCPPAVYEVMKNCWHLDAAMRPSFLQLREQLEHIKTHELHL

[6] = biological target: Mitogen-activated protein kinase kinase kinase 12 (Homo sapiens) (UniProt Q12852); assay: Inhibition of DLK (unknown origin) at 1 uM by Ambit Kinomescan binding assay relative to control
Mitogen-activated protein kinase kinase kinase 12 (Homo sapiens), sequence (Q12852 whole entry, looked up, the tested form may be a part): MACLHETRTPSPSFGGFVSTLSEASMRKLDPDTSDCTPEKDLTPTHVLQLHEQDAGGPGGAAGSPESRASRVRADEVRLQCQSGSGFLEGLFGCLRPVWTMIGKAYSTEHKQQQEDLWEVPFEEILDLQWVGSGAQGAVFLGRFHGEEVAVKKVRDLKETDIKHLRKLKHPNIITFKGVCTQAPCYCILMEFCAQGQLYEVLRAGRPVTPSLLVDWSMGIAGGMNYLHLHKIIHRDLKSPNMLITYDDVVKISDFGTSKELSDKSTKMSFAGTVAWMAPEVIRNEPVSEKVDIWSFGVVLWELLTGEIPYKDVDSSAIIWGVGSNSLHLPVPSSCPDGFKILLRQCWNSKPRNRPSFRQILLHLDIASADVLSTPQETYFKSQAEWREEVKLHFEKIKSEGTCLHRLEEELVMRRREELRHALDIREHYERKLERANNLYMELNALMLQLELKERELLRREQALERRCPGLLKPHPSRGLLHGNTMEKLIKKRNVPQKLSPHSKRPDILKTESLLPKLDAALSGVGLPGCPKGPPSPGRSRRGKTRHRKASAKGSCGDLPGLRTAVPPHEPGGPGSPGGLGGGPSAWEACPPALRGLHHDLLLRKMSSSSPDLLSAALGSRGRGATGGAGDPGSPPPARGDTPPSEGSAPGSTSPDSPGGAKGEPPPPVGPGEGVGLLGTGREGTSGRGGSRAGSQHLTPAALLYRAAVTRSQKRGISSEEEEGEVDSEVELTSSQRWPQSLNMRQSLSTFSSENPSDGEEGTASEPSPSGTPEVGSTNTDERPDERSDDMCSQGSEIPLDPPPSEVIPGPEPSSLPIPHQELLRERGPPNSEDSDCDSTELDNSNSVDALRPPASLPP

[7] = biological target: Epithelial discoidin domain-containing receptor 1 (Homo sapiens) (UniProt Q08345); assay: Inhibition of DDR1 (unknown origin) at 1 uM by Ambit Kinomescan binding assay relative to control; values are per cent of control
[8] = biological target: Serine/threonine-protein kinase PAK 5 (Homo sapiens) (UniProt Q9P286); assay: Inhibition of PAK7 (unknown origin) at 1 uM by Ambit Kinomescan binding assay relative to control
Serine/threonine-protein kinase PAK 5 (Homo sapiens), sequence (Q9P286 whole entry, looked up): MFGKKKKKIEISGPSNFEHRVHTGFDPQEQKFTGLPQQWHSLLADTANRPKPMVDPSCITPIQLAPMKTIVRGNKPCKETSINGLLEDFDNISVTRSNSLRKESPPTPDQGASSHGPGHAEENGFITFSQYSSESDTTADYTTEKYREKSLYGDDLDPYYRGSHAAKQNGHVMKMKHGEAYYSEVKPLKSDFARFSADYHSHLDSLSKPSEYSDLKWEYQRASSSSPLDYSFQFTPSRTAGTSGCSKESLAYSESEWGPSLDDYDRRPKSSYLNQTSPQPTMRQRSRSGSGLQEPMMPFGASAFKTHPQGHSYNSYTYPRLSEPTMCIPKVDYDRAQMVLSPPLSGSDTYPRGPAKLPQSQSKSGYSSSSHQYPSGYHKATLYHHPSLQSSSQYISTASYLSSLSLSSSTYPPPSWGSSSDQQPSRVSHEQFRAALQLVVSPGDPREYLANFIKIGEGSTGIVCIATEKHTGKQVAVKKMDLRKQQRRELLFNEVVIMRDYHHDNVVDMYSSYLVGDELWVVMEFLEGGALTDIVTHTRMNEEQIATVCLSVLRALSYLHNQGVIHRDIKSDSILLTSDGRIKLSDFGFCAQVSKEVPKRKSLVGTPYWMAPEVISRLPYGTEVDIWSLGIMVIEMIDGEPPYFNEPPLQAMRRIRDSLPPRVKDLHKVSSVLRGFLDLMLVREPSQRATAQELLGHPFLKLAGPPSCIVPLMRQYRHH

[9] = biological target: T3, EKC/KEOPS complex subunit TP53RK (Homo sapiens) (UniProt Q96S44); assay: Inhibition of PRPK ATP Loop labeling site in human A-375 cells at 5 uM by KiNativ Profiling analysis relative to control; type: cell-based
T3 sequence (whole entry): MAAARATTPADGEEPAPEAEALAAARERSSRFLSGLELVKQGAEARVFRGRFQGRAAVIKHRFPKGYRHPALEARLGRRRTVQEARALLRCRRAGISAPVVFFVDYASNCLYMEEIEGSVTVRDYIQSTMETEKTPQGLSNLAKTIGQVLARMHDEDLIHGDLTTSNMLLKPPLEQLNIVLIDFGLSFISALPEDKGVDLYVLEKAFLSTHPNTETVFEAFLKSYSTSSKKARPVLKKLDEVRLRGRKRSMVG

[10] = biological target: Misshapen-like kinase 1 (Homo sapiens) (UniProt Q8N4C8); assay: Inhibition of ZC3 Lys2 labeling site in human A-375 cells at 5 uM by KiNativ Profiling analysis relative to control; type: cell-based
Misshapen-like kinase 1 (Homo sapiens), sequence (Q8N4C8 whole entry, looked up): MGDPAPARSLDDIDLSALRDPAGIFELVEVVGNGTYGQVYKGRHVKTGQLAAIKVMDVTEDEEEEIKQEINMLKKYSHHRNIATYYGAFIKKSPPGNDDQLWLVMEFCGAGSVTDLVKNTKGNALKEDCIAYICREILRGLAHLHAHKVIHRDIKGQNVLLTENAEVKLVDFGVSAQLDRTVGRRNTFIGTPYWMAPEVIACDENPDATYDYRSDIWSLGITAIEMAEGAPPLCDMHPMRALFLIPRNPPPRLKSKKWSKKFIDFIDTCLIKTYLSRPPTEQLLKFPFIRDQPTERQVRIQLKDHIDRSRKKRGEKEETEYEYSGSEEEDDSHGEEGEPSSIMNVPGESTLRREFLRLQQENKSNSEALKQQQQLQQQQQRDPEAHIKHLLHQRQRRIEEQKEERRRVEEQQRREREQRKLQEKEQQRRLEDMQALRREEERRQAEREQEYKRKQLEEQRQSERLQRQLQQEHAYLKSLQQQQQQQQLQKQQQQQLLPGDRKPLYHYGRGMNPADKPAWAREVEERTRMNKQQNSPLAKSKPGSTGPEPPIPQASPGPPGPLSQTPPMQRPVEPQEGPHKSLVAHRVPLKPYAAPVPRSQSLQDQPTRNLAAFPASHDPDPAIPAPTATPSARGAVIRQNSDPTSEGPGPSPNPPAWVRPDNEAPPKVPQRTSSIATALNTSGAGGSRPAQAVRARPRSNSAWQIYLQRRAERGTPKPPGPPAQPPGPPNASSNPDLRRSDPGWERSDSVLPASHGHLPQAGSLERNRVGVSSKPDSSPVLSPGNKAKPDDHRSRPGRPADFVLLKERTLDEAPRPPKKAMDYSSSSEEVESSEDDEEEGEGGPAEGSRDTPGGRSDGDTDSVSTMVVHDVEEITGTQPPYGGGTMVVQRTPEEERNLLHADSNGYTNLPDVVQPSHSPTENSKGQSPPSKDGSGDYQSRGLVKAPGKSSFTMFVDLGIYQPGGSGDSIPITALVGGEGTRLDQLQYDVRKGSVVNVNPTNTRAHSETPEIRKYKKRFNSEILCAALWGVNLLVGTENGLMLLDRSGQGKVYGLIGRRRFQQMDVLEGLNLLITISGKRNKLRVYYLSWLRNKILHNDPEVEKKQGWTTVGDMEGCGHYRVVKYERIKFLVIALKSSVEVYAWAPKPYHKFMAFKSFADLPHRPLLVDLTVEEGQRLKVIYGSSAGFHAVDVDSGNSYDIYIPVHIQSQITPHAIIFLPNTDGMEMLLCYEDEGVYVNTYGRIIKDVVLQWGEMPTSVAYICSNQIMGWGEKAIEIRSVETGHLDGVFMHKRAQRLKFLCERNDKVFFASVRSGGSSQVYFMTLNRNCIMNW

[11] = biological target: Serine/threonine-protein kinase 4 (Homo sapiens) (UniProt Q13043); assay: Inhibition of MST1 Lys2 labeling site harbouring IHRDIKAGNILLNTEGHAK in human Huh-7 cell lysate at 1 uM by KiNativ Profiling analysis relative to control
Serine/threonine-protein kinase 4 (Homo sapiens), sequence (Q13043 whole entry, looked up): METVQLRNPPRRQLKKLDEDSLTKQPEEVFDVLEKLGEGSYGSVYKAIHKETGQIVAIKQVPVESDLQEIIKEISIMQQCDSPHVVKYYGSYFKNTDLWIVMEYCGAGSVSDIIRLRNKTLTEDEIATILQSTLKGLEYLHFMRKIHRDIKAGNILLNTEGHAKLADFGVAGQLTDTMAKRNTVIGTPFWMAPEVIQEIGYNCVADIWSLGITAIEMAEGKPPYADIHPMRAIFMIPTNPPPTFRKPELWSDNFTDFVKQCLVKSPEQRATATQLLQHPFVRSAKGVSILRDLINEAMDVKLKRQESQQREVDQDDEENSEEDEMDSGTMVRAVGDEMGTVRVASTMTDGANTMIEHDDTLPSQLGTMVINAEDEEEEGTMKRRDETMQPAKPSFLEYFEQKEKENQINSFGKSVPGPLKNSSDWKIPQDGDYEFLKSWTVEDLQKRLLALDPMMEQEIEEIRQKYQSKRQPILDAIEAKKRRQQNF

[12] = biological target: RAF proto-oncogene serine/threonine-protein kinase (Homo sapiens, UniProt P04049); assay: Inhibition of RAF1 Lys2 labeling site in human Huh-7 cells at 1 uM by KiNativ Profiling analysis relative to control; type: cell-based
RAF proto-oncogene serine/threonine-protein kinase, sequence (P04049 whole entry): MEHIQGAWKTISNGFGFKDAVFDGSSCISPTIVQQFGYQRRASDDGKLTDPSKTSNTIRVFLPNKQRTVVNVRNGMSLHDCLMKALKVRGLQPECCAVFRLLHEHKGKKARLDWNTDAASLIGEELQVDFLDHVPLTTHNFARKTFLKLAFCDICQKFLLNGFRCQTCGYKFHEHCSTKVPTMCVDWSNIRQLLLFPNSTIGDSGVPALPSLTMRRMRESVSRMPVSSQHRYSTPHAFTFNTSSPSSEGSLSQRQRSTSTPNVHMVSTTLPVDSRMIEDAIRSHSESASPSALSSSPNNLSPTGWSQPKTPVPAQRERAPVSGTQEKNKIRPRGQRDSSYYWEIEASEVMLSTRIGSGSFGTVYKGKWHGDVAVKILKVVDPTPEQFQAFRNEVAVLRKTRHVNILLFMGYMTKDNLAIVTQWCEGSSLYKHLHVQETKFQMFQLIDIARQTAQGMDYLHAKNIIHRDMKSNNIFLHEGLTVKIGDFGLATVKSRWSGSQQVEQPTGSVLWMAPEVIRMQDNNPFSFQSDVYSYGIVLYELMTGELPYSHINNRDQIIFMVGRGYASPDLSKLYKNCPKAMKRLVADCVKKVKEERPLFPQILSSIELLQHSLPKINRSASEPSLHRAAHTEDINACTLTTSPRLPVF

**Q.** What does the source list for `CCN1CCN(Cc2ccc(NC(=O)c3ccc(C)c(/C=C/c4cnc5[nH]ccc5c4OC)c3)cc2C(F)(F)F)CC1`?
**A.** residual activity [1]: 100%; residual activity [2]: 83%; percent of control [3]: 0%; residual activity [4]: 4.6%; inhibition [5]: 2%; inhibition [6]: 74%; % of control [7]: 0.05%; inhibition [8]: 70%

**Q.** Which inhibition [9] does the source give for `CCN1CCN(Cc2ccc(NC(=O)c3ccc(C)c(Oc4ccnc5[nH]ccc45)c3)cc2C(F)(F)F)CC1` here?
**A.** The inhibition was 8%.

**Q.** What about the inhibition [10] of the same compound?
**A.** The inhibition was 92.7%.

**Q.** `CNc1cc(Oc2cc(C(=O)Nc3cc(N4CCN(C)CC4)cc(C(F)(F)F)c3)ccc2C)ncn1` was tested. Which inhibition [11] did it give?
**A.** Its inhibition is 14.4%.

**Q.** And the inhibition [12]?
**A.** The inhibition was 34.1%.
